{"source": "paper PMC11432330", "about": "“Novel Drug-like HsrA Inhibitors Exhibit Potent Narrow-Spectrum Antimicrobial Activities against Helicobacter pylori” (International Journal of Molecular Sciences, 2024)", "test_system": "H. pylori 26695", "test": "In vivo inhibition of HsrA: RNA-Seq transcriptomic analysis of exposed cells", "type": "cell-based, Helicobacter pylori", "settings": "for log2 Fold Change: exposed to lethal concentrations vs control", "description": "Bacterial growth from three blood agar plates of H. pylori ATCC 700392 (aka 26695) incubated for 48 h at 37 °C under microaerobic conditions was aseptically resuspended in BHI + FBS and adjusted to 10^7 CFU/mL. BHI broth cultures were incubated microaerobically at 37 °C for 24 h. […] At this time, bacterial growth was stopped by adding 1.5 mL ice-cold RNA stop solution (95% absolute ethanol, 5% acid-buffered phenol) and subsequently incubated on ice. Control samples were exposed to the same amount of DMSO instead of the inhibitor. Helicobacter cells from all samples were harvested by centrifugation (4000 rpm at 4 °C for 10 min), then the pellets were quickly frozen by immersion in liquid nitrogen and stored at −80 °C.\nRNA-Seq analysis was performed by GENEWIZ (Azenta Life Sciences, Leipzig, Germany). Frozen cell pellets from two biological replicates of each treatment condition were properly submitted to GENEWIZ in dry ice. RNA-Seq libraries were prepared according to standard protocols via rRNA depletion, RNA fragmentation and random priming, reverse transcription, 5’-phosphorylation and dA-tailing of cDNAs, adaptor ligation, and PCR enrichment. Once the quality of each library was confirmed, they were sequenced on an Illumina NovaSeq 6000 (Illumina, San Diego, CA, USA) with 150-bp paired-ends. Raw sequence reads were filtered to remove possible adapter sequences and nucleotides with poor quality using Trimmomatic v.0.36 [105]. The trimmed reads were subsequently mapped to the H. pylori strain 26695 reference genome NC_000915.1 available on NCBI, by using the Bowtie2 aligner v.2.2.6 [106]. Unique gene hit counts were calculated by using featureCounts from the Subread package v.1.5.2. Only unique reads that fell within the gene regions were counted. Using DESeq2 [108], a comparison of the gene expression between the control and treated groups of samples was performed. The Wald test was used to generate p-values and log2 fold changes. Genes with an adjusted p-value < 0.05 and absolute log2 fold change >1 were considered as differentially expressed genes (DEGs) for each comparison. The RNA-Seq data generated in this study have been deposited in ArrayExpress with the accession number E-MTAB-14255."}
{"smiles": "NC(=NOC(=O)Nc1ccc(Cl)cc1)c1csc([N+](=O)[O-])c1", "note": "[Ligand V, N′-{[(4-chloroanilino)carbonyl]}oxy-5-nitrothiophene-3-carboximidamide]", "values": [{"measurement": "log2 Fold Change HP0986", "setting": "gene HP0986, lethal concentrations of V vs control", "result": 0.434}, {"measurement": "log2 Fold Change", "setting": "gene HP0987", "result": -0.503}, {"measurement": "log2 Fold Change HP0989", "setting": "gene HP0989, lethal concentrations of V vs control", "result": 0.305}, {"measurement": "log2 Fold Change HP0993", "setting": "gene HP0993, lethal concentrations of V vs control", "result": 0.415}, {"measurement": "log2 Fold Change HP0995", "setting": "gene HP0995, lethal concentrations of V vs control", "result": 0.339}, {"measurement": "log2 Fold Change HP0997", "setting": "gene HP0997, lethal concentrations of V vs control", "result": 0.344}, {"measurement": "log2 Fold Change HP1008", "setting": "gene HP1008, lethal concentrations of V vs control", "result": 0.406}, {"measurement": "log2 Fold Change HP1023", "setting": "gene HP1023, lethal concentrations of V vs control", "result": 0.173}, {"measurement": "log2 Fold Change HP1030", "setting": "gene HP1030, lethal concentrations of V vs control", "result": 0.181}, {"measurement": "log2 Fold Change HP1036", "setting": "gene HP1036, lethal concentrations of V vs control", "result": 0.464}, {"measurement": "log2 Fold Change", "setting": "gene HP1042", "result": -0.579}, {"measurement": "log2 Fold Change HP1057", "setting": "gene HP1057, lethal concentrations of V vs control", "result": 0.304}, {"measurement": "log2 Fold Change", "setting": "gene HP1067", "result": -0.595}, {"measurement": "log2 Fold Change HP1080", "setting": "gene HP1080, lethal concentrations of V vs control", "result": 0.450}, {"measurement": "log2 Fold Change HP1083", "setting": "gene HP1083, lethal concentrations of V vs control", "result": 0.380}, {"measurement": "log2 Fold Change HP1088", "setting": "gene HP1088, lethal concentrations of V vs control", "result": 0.367}, {"measurement": "log2 Fold Change HP1091", "setting": "gene HP1091, lethal concentrations of V vs control", "result": 0.326}, {"measurement": "log2 Fold Change HP1094", "setting": "gene HP1094, lethal concentrations of V vs control", "result": 0.330}, {"measurement": "log2 Fold Change HP1095", "setting": "gene HP1095, lethal concentrations of V vs control", "result": 0.451}, {"measurement": "log2 Fold Change HP1096", "setting": "gene HP1096, lethal concentrations of V vs control", "result": 0.362}, {"measurement": "log2 Fold Change HP1098", "setting": "gene HP1098, lethal concentrations of V vs control", "result": 0.266}, {"measurement": "log2 Fold Change", "setting": "gene HP1102", "result": 1.324}, {"measurement": "log2 Fold Change", "setting": "gene HP1112", "result": -0.531}, {"measurement": "log2 Fold Change HP1113", "setting": "gene HP1113, lethal concentrations of V vs control", "result": 0.235}, {"measurement": "log2 Fold Change HP1115", "setting": "gene HP1115, lethal concentrations of V vs control", "result": 0.309}, {"measurement": "log2 Fold Change HP1120", "setting": "gene HP1120, lethal concentrations of V vs control", "result": 0.296}, {"measurement": "log2 Fold Change HP1122", "setting": "gene HP1122, lethal concentrations of V vs control", "result": 0.364}, {"measurement": "log2 Fold Change HP1125", "setting": "gene HP1125, lethal concentrations of V vs control", "result": 0.243}, {"measurement": "log2 Fold Change HP1132", "setting": "gene HP1132, lethal concentrations of V vs control", "result": 0.451}, {"measurement": "log2 Fold Change HP1139", "setting": "gene HP1139, lethal concentrations of V vs control", "result": 0.341}, {"measurement": "log2 Fold Change HP1140", "setting": "gene HP1140, lethal concentrations of V vs control", "result": 0.260}, {"measurement": "log2 Fold Change HP1142", "setting": "gene HP1142, lethal concentrations of V vs control", "result": 0.424}, {"measurement": "log2 Fold Change HP1154", "setting": "gene HP1154, lethal concentrations of V vs control", "result": 0.259}, {"measurement": "log2 Fold Change HP1157", "setting": "gene HP1157, lethal concentrations of V vs control", "result": 0.263}, {"measurement": "log2 Fold Change", "setting": "gene HP1159", "result": -0.549}, {"measurement": "log2 Fold Change HP1164", "setting": "gene HP1164, lethal concentrations of V vs control", "result": 0.208}, {"measurement": "log2 Fold Change HP1165", "setting": "gene HP1165, lethal concentrations of V vs control", "result": 0.470}, {"measurement": "log2 Fold Change HP1171", "setting": "gene HP1171, lethal concentrations of V vs control", "result": 0.290}, {"measurement": "log2 Fold Change", "setting": "gene HP1184", "result": -0.471}, {"measurement": "log2 Fold Change HP1193", "setting": "gene HP1193, lethal concentrations of V vs control", "result": 0.413}, {"measurement": "log2 Fold Change", "setting": "gene HP1196", "result": -0.491}, {"measurement": "log2 Fold Change HP1218", "setting": "gene HP1218, lethal concentrations of V vs control", "result": 0.194}, {"measurement": "log2 Fold Change HP1221", "setting": "gene HP1221, lethal concentrations of V vs control", "result": 0.426}, {"measurement": "log2 Fold Change HP1222", "setting": "gene HP1222, lethal concentrations of V vs control", "result": 0.384}, {"measurement": "log2 Fold Change HP1226", "setting": "gene HP1226, lethal concentrations of V vs control", "result": 0.186}, {"measurement": "log2 Fold Change", "setting": "gene HP1232", "result": -0.511}, {"measurement": "log2 Fold Change HP1234", "setting": "gene HP1234, lethal concentrations of V vs control", "result": 0.340}, {"measurement": "log2 Fold Change", "setting": "gene HP1243", "result": 1.352}, {"measurement": "log2 Fold Change HP1251", "setting": "gene HP1251, lethal concentrations of V vs control", "result": 0.458}, {"measurement": "log2 Fold Change", "setting": "gene HP1258", "result": -0.491}, {"measurement": "log2 Fold Change HP1261", "setting": "gene HP1261, lethal concentrations of V vs control", "result": 0.181}, {"measurement": "log2 Fold Change HP1262", "setting": "gene HP1262, lethal concentrations of V vs control", "result": 0.367}, {"measurement": "log2 Fold Change HP1264", "setting": "gene HP1264, lethal concentrations of V vs control", "result": 0.389}, {"measurement": "log2 Fold Change HP1267", "setting": "gene HP1267, lethal concentrations of V vs control", "result": 0.146}, {"measurement": "log2 Fold Change", "setting": "gene HP1270", "result": -0.476}, {"measurement": "log2 Fold Change HP1285", "setting": "gene HP1285, lethal concentrations of V vs control", "result": 0.248}, {"measurement": "log2 Fold Change HP1322", "setting": "gene HP1322, lethal concentrations of V vs control", "result": 0.318}, {"measurement": "log2 Fold Change HP1337", "setting": "gene HP1337, lethal concentrations of V vs control", "result": 0.239}, {"measurement": "log2 Fold Change", "setting": "gene HP1343", "result": -0.493}, {"measurement": "log2 Fold Change", "setting": "gene HP1346", "result": -0.518}, {"measurement": "log2 Fold Change HP1352", "setting": "gene HP1352, lethal concentrations of V vs control", "result": 0.160}, {"measurement": "log2 Fold Change", "setting": "gene HP1355", "result": -0.601}, {"measurement": "log2 Fold Change", "setting": "gene HP1357", "result": -0.489}, {"measurement": "log2 Fold Change HP1358", "setting": "gene HP1358, lethal concentrations of V vs control", "result": 0.185}, {"measurement": "log2 Fold Change HP1359", "setting": "gene HP1359, lethal concentrations of V vs control", "result": 0.220}, {"measurement": "log2 Fold Change HP1361", "setting": "gene HP1361, lethal concentrations of V vs control", "result": 0.344}, {"measurement": "log2 Fold Change HP1363", "setting": "gene HP1363, lethal concentrations of V vs control", "result": 0.291}, {"measurement": "log2 Fold Change HP1366", "setting": "gene HP1366, lethal concentrations of V vs control", "result": 0.348}, {"measurement": "log2 Fold Change HP1371", "setting": "gene HP1371, lethal concentrations of V vs control", "result": 0.280}, {"measurement": "log2 Fold Change HP1377", "setting": "gene HP1377, lethal concentrations of V vs control", "result": 0.474}, {"measurement": "log2 Fold Change HP1380", "setting": "gene HP1380, lethal concentrations of V vs control", "result": 0.326}, {"measurement": "log2 Fold Change", "setting": "gene HP1381", "result": -0.548}, {"measurement": "log2 Fold Change HP1385", "setting": "gene HP1385, lethal concentrations of V vs control", "result": 0.232}, {"measurement": "log2 Fold Change HP1404", "setting": "gene HP1404, lethal concentrations of V vs control", "result": 0.393}, {"measurement": "log2 Fold Change", "setting": "gene HP1411", "result": 1.307}, {"measurement": "log2 Fold Change HP1433", "setting": "gene HP1433, lethal concentrations of V vs control", "result": 0.238}, {"measurement": "log2 Fold Change HP1434", "setting": "gene HP1434, lethal concentrations of V vs control", "result": 0.407}, {"measurement": "log2 Fold Change HP1435", "setting": "gene HP1435, lethal concentrations of V vs control", "result": 0.348}, {"measurement": "log2 Fold Change HP1436", "setting": "gene HP1436, lethal concentrations of V vs control", "result": 0.297}, {"measurement": "log2 Fold Change HP1438", "setting": "gene HP1438, lethal concentrations of V vs control", "result": 0.319}, {"measurement": "log2 Fold Change", "setting": "gene HP1442", "result": -0.497}]}
